Results published in the supplement of paper PMC10307832.

Tests used:
Experiment in all cases: relative viability (nuclei count vs DMSO), 5 days (fraction); higher = more cells survive
BI-D1870 + Lapatinib = compound: CC(C)CCN1c2nc(Nc3cc(F)c(O)c(F)c3)ncc2N(C)C(=O)C1C [BI-D1870] + CS(=O)(=O)CCNCc1ccc(-c2ccc3ncnc(Nc4ccc(OCc5cccc(F)c5)c(Cl)c4)c3c2)o1 [Lapatinib] (partner 2 µM)
In short: (§1)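 The day after seeding in 1536-well plates, lung cancer cell lines were treated by pin tool with a single drug, or with a fixed anchor-drug dose together with five library-drug doses (not always all listed) in √10 steps. After 5 days, a combined fix-and-stain solution (final 0.05% Triton X-100, 1% formaldehyde, 1 ug/ml Hoechst) was added. Nuclei counted on 4× images gave relative viability as treated counts over vehicle counts, reported as the median of duplicate plates.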

Zebularine + Tozasertib = compound: O=c1ncccn1[C@@H]1O[C@H](CO)[C@@H](O)[C@H]1O [Zebularine] + Cc1cc(Nc2cc(N3CCN(C)CC3)nc(Sc3ccc(NC(=O)C4CC4)cc3)n2)n[nH]1 [Tozasertib] (partner 0.1 µM)
In short: as §1

Zebularine + Alpelisib = compound: O=c1ncccn1[C@@H]1O[C@H](CO)[C@@H](O)[C@H]1O [Zebularine] + Cc1nc(NC(=O)N2CCC[C@H]2C(N)=O)sc1-c1ccnc(C(C)(C)C(F)(F)F)c1 [Alpelisib] (partner 2 µM)
In short: as §1

Zebularine + Olaparib = compound: O=c1ncccn1[C@@H]1O[C@H](CO)[C@@H](O)[C@H]1O [Zebularine] + O=C(c1cc(Cc2n[nH]c(=O)c3ccccc23)ccc1F)N1CCN(C(=O)C2CC2)CC1 [Olaparib] (partner 8 µM)
In short: as §1

Row | Cell Line | relative viability (BI-D1870 + Lapatinib; first compound 0.04 µM) | relative viability (BI-D1870 + Lapatinib; first compound 0.1265 µM) | relative viability (BI-D1870 + Lapatinib; first compound 0.4 µM) | relative viability (BI-D1870 + Lapatinib; first compound 1.265 µM) | relative viability (BI-D1870 + Lapatinib; first compound 4 µM) | relative viability (Zebularine + Tozasertib; first compound 1 µM) | relative viability (Zebularine + Tozasertib; first compound 3.162 µM) | relative viability (Zebularine + Tozasertib; first compound 10 µM) | relative viability (Zebularine + Tozasertib; first compound 31.62 µM) | relative viability (Zebularine + Tozasertib; first compound 100 µM) | relative viability (Zebularine + Alpelisib; first compound 1 µM) | relative viability (Zebularine + Alpelisib; first compound 3.162 µM) | relative viability (Zebularine + Alpelisib; first compound 10 µM) | relative viability (Zebularine + Alpelisib; first compound 31.62 µM) | relative viability (Zebularine + Alpelisib; first compound 100 µM) | relative viability (Zebularine + Olaparib; first compound 1 µM) | relative viability (Zebularine + Olaparib; first compound 3.162 µM) | relative viability (Zebularine + Olaparib; first compound 10 µM) | relative viability (Zebularine + Olaparib; first compound 31.62 µM) | relative viability (Zebularine + Olaparib; first compound 100 µM)
1 | 201T | 1.01 | 0.97 | 1.05 | 1.02 | 1.03 | 1.03 | 0.938 | 0.647 | 0.977 | 0.595 | 1.07 | 1.06 | 0.859 | 0.992 | 0.877 | 0.907 | 0.798 | 0.574 | 0.544 | 0.474
2 | A549 | 1.16 | 0.875 | 1.06 | 0.908 | 0.992 | – | – | – | – | – | 0.923 | 0.658 | – | 0.625 | 0.317 | 0.475 | 0.165 | 0.163 | 0.156 | 0.0971
3 | A-427 | 1.05 | 0.981 | 0.957 | 1.21 | 1.09 | 0.201 | 0.194 | 0.222 | 0.155 | 0.152 | 1.08 | 0.993 | 0.785 | 0.412 | 0.237 | 0.771 | 0.668 | 0.576 | 0.446 | 0.244
4 | ABC-1 | 1.19 | 0.952 | 1.05 | 1.28 | 1.02 | 0.193 | 0.196 | 0.164 | 0.189 | 0.148 | 1.43 | 1.01 | 0.84 | 0.891 | 0.536 | 0.782 | 0.696 | 0.666 | 0.702 | 0.522
5 | BEN | 0.713 | 0.728 | 0.784 | 0.749 | 0.621 | 0.612 | 0.563 | 0.379 | 0.354 | 0.43 | 0.991 | 0.897 | 0.454 | 0.372 | 0.377 | 0.819 | 0.623 | 0.608 | 0.428 | 0.506
6 | CAL-12T | 0.799 | 0.672 | 0.664 | 1.03 | 0.539 | 0.379 | 0.369 | 0.241 | 0.379 | 0.247 | 1.49 | 1.07 | – | 1.28 | 1.1 | 0.837 | 0.721 | 0.548 | 0.444 | 0.273
7 | COR-L23 | 1.07 | 0.929 | 0.992 | 0.798 | 0.982 | 0.216 | 0.263 | 0.186 | 0.181 | 0.119 | 0.872 | 0.926 | 0.431 | 0.361 | 0.265 | 0.336 | 0.329 | 0.277 | 0.178 | 0.138
8 | COR-L 105 | 0.387 | 0.363 | 0.355 | 0.407 | 0.335 | 0.316 | 0.285 | 0.345 | 0.367 | 0.319 | 1.24 | 0.952 | 0.807 | 0.96 | 1.1 | 0.715 | 0.671 | 0.766 | 1.02 | 0.644
9 | Calu-6 | 1.07 | 0.977 | 1.09 | 0.931 | 0.868 | – | – | – | – | – | 1 | 0.929 | 0.869 | 0.786 | 0.302 | 0.739 | 0.467 | 0.409 | 0.331 | 0.253
10 | ChaGo-K-1 | – | – | – | – | – | 0.22 | 0.208 | 0.211 | 0.172 | 0.195 | – | – | – | – | – | 0.332 | 0.32 | 0.289 | 0.202 | 0.187
11 | EBC-1 | 0.195 | 0.19 | 0.205 | 0.188 | 0.158 | – | – | – | – | – | 0.899 | 0.832 | 0.711 | 1.02 | 0.857 | 0.833 | 0.731 | 0.584 | 0.547 | 0.359
12 | EKVX | 0.236 | 0.18 | 0.195 | 0.223 | 0.2 | 0.44 | 0.409 | 0.3 | 0.374 | 0.335 | 0.958 | 0.867 | – | 0.963 | 0.802 | 0.952 | 0.813 | – | 0.757 | 0.664
13 | EMC-BAC-2 | 0.823 | 0.887 | 0.815 | 0.951 | 0.899 | 0.326 | 0.313 | 0.266 | 0.28 | 0.313 | 0.799 | 0.583 | 0.456 | 0.878 | 0.773 | 0.559 | 0.477 | 0.364 | 0.526 | 0.488
14 | EPLC-272H | 0.878 | 0.879 | 0.734 | 1.01 | 0.852 | 0.222 | 0.179 | 0.156 | 0.317 | 0.256 | 0.975 | – | – | 0.828 | 0.776 | 0.955 | 0.774 | – | 0.66 | 0.41
15 | H3255 | 0.221 | 0.266 | 0.258 | 0.296 | 0.244 | 0.542 | 0.61 | 0.271 | 0.106 | 0.627 | 0.664 | 0.734 | 0.422 | 0.716 | 0.673 | 0.624 | 0.597 | 0.502 | 0.577 | 0.513
